The IC50 is the concentration at which inhibition is half-maximal.

One test deals with COX-1 (Homo sapiens, UniProt P23219). The test can be described thus: Assay of COX-1 activity from U937 cell microsomes (PGE2). The class given is biochemical. Details: Assay of COX-1 Activity from U937 Cell Microsomes; endogenous in cells; host or cells: U937 cells, 100,000 x g microsomal pellet. The following applies: U-937 cell microsomes, 15 min preincubation; read-out: COX-1 (IC50 mM) U-937. The method, then:
U 937 cells are pelleted by centrifugation at 500×g for 5 min and washed once with phosphate-buffered saline and repelleted. Cells are resuspended in homogenization buffer consisting of 0.1 M Tris-HCl, pH 7.4, 10 mM EDTA, […] leupeptin, 2 μg/ml soybean trypsin inhibitor, 2 μg/ml aprotinin and 1 mM phenyl methyl sulfonyl fluoride. The cell suspension is sonicated 4 times for 10 sec and is centrifuged at 10,000×g for 10 min at 4° C. The supernatant is centrifuged at 100,000×g for 1 hr at 4° C. The 100,000×g microsomal pellet is resuspended in 0.1 M Tris-HCl, pH 7.4, 10 mM EDTA to approximately 7 mg protein/ml and stored at -80° C.
Microsomal preparations are thawed immediately prior to use, subjected to a brief sonication, and then diluted to a protein concentration of 125 μg/ml in 0.1 M Tris-HCl buffer, pH 7.4 containing 10 mM EDTA, 0.5 mM phenol, 1 mM reduced glutathione and 1 μM hematin. Assays are performed in duplicate in a final volume of 250 μl. Initially, 5 μl of DMSO vehicle or drug in DMSO are added to 20 μl of 0.1 M Tris-HCl buffer, pH 7.4 containing 10 mM EDTA in wells of a 96-deepwell polypropylene titre plate. 200 μl of the microsomal preparation are then added and pre-incubated for 15 min at room temperature before addition of 25 μl of […] arachidonic acid in […] Tris-HCl and 10 mM EDTA, pH 7.4. Samples are incubated for 40 min at room temperature and the reaction is stopped by the addition of 25 μl of 1 N HCl. Samples are neutralized with 25 μl of 1 N NaOH prior to quantitation of PGE2 content by radioimmunoassay (Dupont-NEN or Amersham assay kits). Cyclooxygenase activity is defined as the difference between PGE2 levels in samples incubated in the presence of arachidonic acid and ethanol vehicle.
In the assay, inhibition is determined by measuring the amount of prostaglandin E2 (PGE2) synthesized in the presence of arachidonic acid, cyclooxygenase-1 or cyclooxygenase-2 and a putative inhibitor.

For test [1], the target named is T1, COX-2 (Homo sapiens, UniProt P35354).
T1 sequence (P35354 18-604): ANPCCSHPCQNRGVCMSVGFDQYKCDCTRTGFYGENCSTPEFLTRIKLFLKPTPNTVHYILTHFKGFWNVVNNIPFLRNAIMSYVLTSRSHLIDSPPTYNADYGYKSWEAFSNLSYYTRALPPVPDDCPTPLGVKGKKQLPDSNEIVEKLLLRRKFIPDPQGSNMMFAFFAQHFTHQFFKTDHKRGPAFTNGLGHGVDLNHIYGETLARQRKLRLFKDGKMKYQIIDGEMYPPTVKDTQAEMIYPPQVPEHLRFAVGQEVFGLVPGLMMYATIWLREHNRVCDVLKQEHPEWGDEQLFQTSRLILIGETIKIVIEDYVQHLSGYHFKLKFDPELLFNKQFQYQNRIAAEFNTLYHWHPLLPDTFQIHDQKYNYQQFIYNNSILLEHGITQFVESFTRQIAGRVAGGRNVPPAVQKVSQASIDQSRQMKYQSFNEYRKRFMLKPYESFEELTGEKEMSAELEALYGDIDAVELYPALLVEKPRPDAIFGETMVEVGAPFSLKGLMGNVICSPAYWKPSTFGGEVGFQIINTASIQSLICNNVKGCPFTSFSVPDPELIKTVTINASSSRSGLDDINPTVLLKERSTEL
In words: cell-based. The conditions noted are these: CHO[hCOX-2] cells, 10 μM AA, 15 min preincubation; read-out: COX-2 (IC50 mM) CHO.

Test [2] has as its target T1, COX-2. In words: cell-based. The conditions noted are these: human whole blood, LPS-induced PGE2, 24 h; read-out: COX-2 (IC50 mM) HWB. From the text: As well, platelets in whole blood contain a large amount of the COX-1 enzyme. Immediately following blood clotting, platelets are activated through a thrombin-mediated mechanism. This reaction results in the production of thromboxane B2 (TxB2) via activation of COX-1. Thus, the effect of test compounds on TxB2 levels following blood clotting can be examined and used as an index for COX-1 activity. Therefore, the degree of selectivity by the test compound can be determined by measuring the levels of PGE2 after LPS induction (COX-2) and TxB2 following blood clotting (COX-1) in the same assay.
Fresh blood is collected in heparinized tubes by venipuncture from both male and female volunteers. The subjects have no apparent inflammatory conditions and have not taken any NSAIDs for at least 7 days prior to blood collection. Plasma is immediately obtained from a 2mL blood aliquot to use as blank (basal levels of PGE2). The remaining blood is incubated with LPS (100 μg/ml final concentration, Sigma Chem, #L-2630 from E. coli; diluted in 0.1% BSA (Phosphate buffered saline) for 5 minutes at room temperature. Five hundred […] aliquots of blood are incubated with either 2 μL of vehicle (DMSO) or 2 μL of a test compound at final concentrations varying from 10 nM to 30 μM for 24 hours at 37° C. At the end of the incubation, the blood is centrifuged at 12,000×g for 5 minutes to obtain plasma. A 100 μL aliquot of plasma is mixed with 400 μL of methanol for protein precipitation. The supernatant is obtained and is assayed for PGE2 using a radioimmunoassay kit (Amersham, RPA#530) after conversion of PGE2 to its methyl oximate derivative according to the manufacturer's procedure. […]

Like-named read-outs stand apart in the source and are kept apart here.

COX-1, sequence (P23219 24-599): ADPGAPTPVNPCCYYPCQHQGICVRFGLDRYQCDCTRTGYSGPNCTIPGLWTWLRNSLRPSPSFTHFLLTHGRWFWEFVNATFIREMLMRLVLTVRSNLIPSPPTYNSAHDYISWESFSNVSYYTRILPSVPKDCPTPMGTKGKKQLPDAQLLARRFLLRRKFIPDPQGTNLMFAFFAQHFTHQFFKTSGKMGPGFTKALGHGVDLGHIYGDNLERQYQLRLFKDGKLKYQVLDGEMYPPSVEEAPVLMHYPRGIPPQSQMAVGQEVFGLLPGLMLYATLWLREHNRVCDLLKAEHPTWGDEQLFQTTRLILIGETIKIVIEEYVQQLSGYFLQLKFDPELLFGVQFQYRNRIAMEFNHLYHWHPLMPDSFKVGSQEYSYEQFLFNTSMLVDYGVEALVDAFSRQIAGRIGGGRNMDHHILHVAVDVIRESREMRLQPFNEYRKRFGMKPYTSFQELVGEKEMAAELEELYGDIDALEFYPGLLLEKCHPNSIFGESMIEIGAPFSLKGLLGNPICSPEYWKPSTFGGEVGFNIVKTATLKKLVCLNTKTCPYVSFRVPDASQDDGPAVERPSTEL

In the case of `CS(=O)(=O)c1ccc(-c2cc(C(F)(F)F)cnc2O[C@@H]2CCC[C@@H]2O)cc1` (relative stereo) [Example 29, 2-(cis-2-Hydroxycyclopentyloxy)-3-(4-methylsulfonyl)phenyl-5-trifluoromethylpyridine], the IC50 on COX-1 is above 0.01 mM.

With `CS(=O)(=O)c1ccc(-c2cc(C(F)(F)F)cnc2O[C@H]2CCC[C@@H]2O)cc1` (relative stereo) [Example 30, 2-(trans-2-Hydroxycyclopentyloxy)-3-(4-methylsulfonyl)phenyl-5-trifluoromethylpyridine], the IC50 at COX-1 is 0.003 to 0.01 mM.

With `C[C@]1(O)CCC[C@H]1Oc1ncc(C(F)(F)F)cc1-c1ccc(S(N)(=O)=O)cc1` (relative stereo) [Example 33, 3-(4-aminosulfonyl)phenyl-2-(cis-2-hydroxy-2-methylcyclopentyloxy)-5-trifluoromethylpyridine], the IC50 came out at 40 nM on COX-2 [1], 0.0037 mM at COX-2 [2] and 0.01 mM on COX-1.

`C[C@]1(O)CCC[C@H]1Oc1ncc(Cl)cc1-c1ccc(S(C)(=O)=O)cc1` (relative stereo) [Example 34, 5-Chloro-2-(cis-2-hydroxy-2-methylcyclopentyloxy)-3-(4-methylsulfonyl)phenylpyridine]: the results for the IC50 at COX-2 [1], on COX-2 [2] and at COX-1 were 100 nM, 0.0017 mM and above 0.01 mM, respectively.

Regarding `C[C@@]1(O)CCC[C@H]1Oc1ncc(C(F)(F)F)cc1-c1ccc(S(C)(=O)=O)cc1` (relative stereo) [Example 35, 2-(trans-2-Hydroxy-2-methylcyclopentyloxy)-3-(4-methylsulfonyl)phenyl-5-trifluoromethylpyridine], the IC50 on COX-1 was 0.001 to 0.003 mM.

In the case of `CC[C@]1(O)CCC[C@H]1Oc1ncc(C(F)(F)F)cc1-c1ccc(S(C)(=O)=O)cc1` (relative stereo) [Example 36, 2-(cis-2-Hydroxy-2-ethylcyclopentyloxy)-3-(4-methylsulfonyl)phenyl-5-trifluoromethylpyridine], the IC50 at COX-2 [1] is 170 nM; at COX-2 [2], 0.0031 mM; at COX-1, above 0.01 mM.

`C[C@@]1(O)CCCC[C@@H]1Oc1ncc(C(F)(F)F)cc1-c1ccc(S(C)(=O)=O)cc1` (relative stereo) [Example 37, 2-(cis-2-Hydroxy-2-methylcyclohexyloxy)-3-(4-methylsulfonyl)phenyl-5-trifluoromethylpyridine]: the IC50 at COX-2 [1] is 570 nM; at COX-2 [2], 0.0065 mM; on COX-1, above 0.01 mM.

On to `CCC(C)(O)CSc1ncc(C(F)(F)F)cc1-c1ccc(S(C)(=O)=O)cc1` (single isomer, unassigned; (+)) [Example 45, (+)-2-(2-Hydroxy-2-methyl-1-thiobutyloxy)-3-(4-methylsulfonyl)phenyl-5-trifluoromethylpyridine], for which the IC50 on COX-1 is 0.003 to 0.01 mM.

Take `CCC(C)(O)CSc1ncc(C(F)(F)F)cc1-c1ccc(S(C)(=O)=O)cc1` (single isomer, unassigned; (-)) [Example 46, (-)-2-(2-Hydroxy-2-methyl-1-thiobutyloxy)-3-(4-methylsulfonyl)phenyl-5-trifluoromethylpyridine]: on COX-1, the IC50 was 0.001 to 0.003 mM.

`COCCOc1ncc(C(F)(F)F)cc1-c1ccc(S(C)(=O)=O)cc1` [Example 2, 2-(2-Methoxy)ethoxy-3-(4-methylsulfonyl)phenyl-5-trifluoromethylpyridine]: the IC50 was 20 nM at COX-2 [1], 0.0013 mM on COX-2 [2] and 0.001 to 0.003 mM on COX-1.

`CC(C)(O)COc1ncc(C(F)(F)F)cc1-c1ccc(S(C)(=O)=O)cc1` [Example 4, 2-(2-Hydroxy-2-methyl-1-propyloxy)-3-(4-methylsulfonyl)phenyl-5-trifluoromethylpyridine]: the values for the IC50 on COX-2 [1], on COX-2 [2] and at COX-1 were 150 nM, 0.0008 mM and above 0.1 mM, respectively.

As for `CC(C)(O)COc1ncc(Cl)cc1-c1ccc(S(C)(=O)=O)cc1` [Example 5, 5-Chloro-2-(2-hydroxy-2-methyl-1-propyloxy)-3-(4-methylsulfonyl)phenylpyridine], the results for the IC50 at COX-2 [1], on COX-2 [2] and on COX-1 were 110 nM, 0.0036 mM and above 0.1 mM, respectively.

Turning to `COC(C)(C)COc1ncc(C(F)(F)F)cc1-c1ccc(S(C)(=O)=O)cc1` [Example 6, 2-(2-Methoxy-2-methyl-1-propyloxy)-3-(4-methylsulfonyl)phenyl-5-trifluoromethylpyridine], the IC50 on COX-2 [1] is 30 nM; on COX-2 [2], below 0.0004 mM; at COX-1 it was 0.003 to 0.01 mM.

For `CCC(C)(O)COc1ncc(C(F)(F)F)cc1-c1ccc(S(C)(=O)=O)cc1` (centres unmarked) [Example 7, 2-(2-Hydroxy-2-methyl-1-butyloxy)-3-(4-methylsulfonyl)phenyl-5-trifluoromethylpyridine], the IC50 at COX-2 [1] was 130 nM; at COX-2 [2], 0.001 mM; at COX-1, above 0.01 mM.

Consider `CCC(O)(CC)COc1ncc(C(F)(F)F)cc1-c1ccc(S(C)(=O)=O)cc1` [Example 8, 2-(2-Hydroxy-2-ethyl-1-butyloxy)-3-(4-methylsulfonyl)phenyl-5-trifluoromethylpyridine], for which the figures for the IC50 at COX-2 [1], at COX-2 [2] and at COX-1 were 190 nM, 0.0011 mM and above 0.01 mM, respectively.

Turning to `CCC(O)(CC)COc1ncc(Cl)cc1-c1ccc(S(C)(=O)=O)cc1` [Example 9, 5-Chloro-2-(2-hydroxy-2-ethyl-1-butyloxy)-3-(4-methylsulfonyl)phenylpyridine], the IC50 was 70 nM on COX-2 [1], 0.0016 mM on COX-2 [2] and above 0.01 mM at COX-1.

`CS(=O)(=O)c1ccc(-c2cc(C(F)(F)F)cnc2OCC2(O)CC2)cc1` [Example 11, 2-(1-Hydroxycyclopropyl)methoxy-3-(4-methylsulfonyl)phenyl-5-trifluoromethylpyridine]: the IC50 on COX-2 [1] turned out to be 90 nM; at COX-2 [2] it was 0.0016 mM; at COX-1, 0.01 mM.

`CS(=O)(=O)c1ccc(-c2cc(C(F)(F)F)cnc2OCC2(O)CCC2)cc1` [Example 12, 2-(1-Hydroxycyclobutyl)methoxy-3-(4-methylsulfonyl)phenyl-5-trifluoromethylpyridine]: the IC50 was 50 nM at COX-2 [1], 0.0013 mM at COX-2 [2] and above 0.01 mM at COX-1.

Source of the values: patent US6046217A, “2,3,5-trisubstituted pyridines as inhibitors of cyclooxygenase-2” (Merck Frosst Canada & Co., priority 1998, dated 2000).
